ChEMBL document CHEMBL6074634, “Design, synthesis, and evaluation of novel oxyacanthine derivatives for anti-SARS-CoV-2 activity” (Bioorg Med Chem Lett, 2024)
pIC50: −log10 of the molar value. Calls of active or inactive are those of the source. No cut-off for these calls is given here.

System: not listed separately
Test: Tmax in male ICR mouse at 10 mg/kg, po measured upto 24 hrs by LC-MS/MS analysis
Assay type: ADME, organism-based
Settings: in vivo

| SMILES | Tmax |
| --- | --- |
| COc1cc2c3cc1Oc1c(OC)c(OC)cc4c1[C@H](Cc1ccc(cc1)Oc1cc(ccc1C(N)=O)C[C@H]3N(C)CC2)N(C)CC4 | 1.75 h |
| COc1cc2c3cc1Oc1c(OC)c(OC)cc4c1[C@H](Cc1ccc(cc1)Oc1cc(ccc1O)C[C@H]3N(C)CC2)N(C)CC4 [AROMOLINE] | 0.33 h |
| COc1cc2c3cc1Oc1c(OC)c(OC)cc4c1[C@H](Cc1ccc(cc1)Oc1cc(ccc1C(=O)NC1CC1)C[C@H]3N(C)CC2)N(C)CC4 | 1 h |

System: not listed separately
Test: AUC (0 to 24 hrs) in male ICR mouse at 2.5 mg/kg, iv measured upto 24 hrs by LC-MS/MS analysis
Assay type: ADME, organism-based
Settings: in vivo

| SMILES | AUC(0-t) at 24 h |
| --- | --- |
| COc1cc2c3cc1Oc1c(OC)c(OC)cc4c1[C@H](Cc1ccc(cc1)Oc1cc(ccc1C(N)=O)C[C@H]3N(C)CC2)N(C)CC4 | 4120 ng·h/mL |
| COc1cc2c3cc1Oc1c(OC)c(OC)cc4c1[C@H](Cc1ccc(cc1)Oc1cc(ccc1O)C[C@H]3N(C)CC2)N(C)CC4 [AROMOLINE] | 1300 ng·h/mL |
| COc1cc2c3cc1Oc1c(OC)c(OC)cc4c1[C@H](Cc1ccc(cc1)Oc1cc(ccc1C(=O)NC1CC1)C[C@H]3N(C)CC2)N(C)CC4 | 1840 ng·h/mL |

System: not listed separately
Test: Inhibition of SARS CoV-2 envelope (2-E) channel
Design: species or system Severe acute respiratory syndrome coronavirus 2
Settings: not given

| SMILES | pIC50 |
| --- | --- |
| COc1cc2c3cc1Oc1c(OC)c(OC)cc4c1[C@H](Cc1ccc(cc1)Oc1cc(ccc1C(N)=O)C[C@H]3N(C)CC2)N(C)CC4 | 6.11 |

System: not listed separately
Test: Toxicity in mouse assessed as animal death at 10 to 200 mg/kg administered for 10 days
Assay type: organism-based
Settings: in vivo, 240 h, dose 10-200 mg/kg, time 10 day

| SMILES | Activity |
| --- | --- |
| COc1cc2c3cc1Oc1c(OC)c(OC)cc4c1[C@H](Cc1ccc(cc1)Oc1cc(ccc1C(N)=O)C[C@H]3N(C)CC2)N(C)CC4 | Non-toxic |

System: not listed separately
Test: AUC (0 to 24 hrs) in male ICR mouse at 10 mg/kg, po measured upto 24 hrs by LC-MS/MS analysis
Assay type: ADME, organism-based
Settings: in vivo

| SMILES | AUC(0-t) at 24 h |
| --- | --- |
| COc1cc2c3cc1Oc1c(OC)c(OC)cc4c1[C@H](Cc1ccc(cc1)Oc1cc(ccc1C(N)=O)C[C@H]3N(C)CC2)N(C)CC4 | 12800 ng·h/mL |
| COc1cc2c3cc1Oc1c(OC)c(OC)cc4c1[C@H](Cc1ccc(cc1)Oc1cc(ccc1O)C[C@H]3N(C)CC2)N(C)CC4 [AROMOLINE] | 1790 ng·h/mL |
| COc1cc2c3cc1Oc1c(OC)c(OC)cc4c1[C@H](Cc1ccc(cc1)Oc1cc(ccc1C(=O)NC1CC1)C[C@H]3N(C)CC2)N(C)CC4 | 5000 ng·h/mL |

System: not listed separately
Test: Cytotoxicity against African green monkey Vero E6 cells assessed as cell viability by CCK-8 assay
Assay type: toxicity, cell-based, Vero C1008
Settings: African green monkey (Chlorocebus sabaeus)

| SMILES | pIC50 |
| --- | --- |
| COc1cc2c3cc1Oc1c(OC)c(OC)cc4c1[C@H](Cc1ccc(cc1)Oc1cc(ccc1C(=O)Nc1cccnc1)C[C@H]3N(C)CC2)N(C)CC4 | 4.58 |
| COc1cc2c3cc1Oc1c(OC)c(OC)cc4c1[C@H](Cc1ccc(cc1)Oc1cc(ccc1C(N)=O)C[C@H]3N(C)CC2)N(C)CC4 | 4.20 |
| CCCCCNC(=O)c1ccc2cc1Oc1ccc(cc1)C[C@H]1c3c(cc(OC)c(OC)c3Oc3cc4c(cc3OC)CCN(C)[C@@H]4C2)CCN1C | 4.65 |
| COc1cc2c3cc1Oc1c(OC)c(OC)cc4c1[C@H](Cc1ccc(cc1)Oc1cc(ccc1C(=O)NC1CCC1)C[C@H]3N(C)CC2)N(C)CC4 | 4.47 |
| COc1cc2c3cc1Oc1c(OC)c(OC)cc4c1[C@H](Cc1ccc(cc1)Oc1cc(ccc1O)C[C@H]3N(C)CC2)N(C)CC4 [AROMOLINE] | 4.52 |
| COc1cc2c3cc1Oc1c(OC)c(OC)cc4c1[C@H](Cc1ccc(cc1)Oc1cc(ccc1C(=O)NC(C)C)C[C@H]3N(C)CC2)N(C)CC4 | 4.58 |
| CNC(=O)c1ccc2cc1Oc1ccc(cc1)C[C@H]1c3c(cc(OC)c(OC)c3Oc3cc4c(cc3OC)CCN(C)[C@@H]4C2)CCN1C | 4.18 |
| COc1cc2c3cc1Oc1c(OC)c(OC)cc4c1[C@H](Cc1ccc(cc1)OC1C=C(Cc5[nH]c(=O)oc51)C[C@H]3N(C)CC2)N(C)CC4 (some centres undefined) | 4.83 |
| C=CC(=O)Nc1ccc2cc1Oc1ccc(cc1)C[C@H]1c3c(cc(OC)c(OC)c3Oc3cc4c(cc3OC)CCN(C)[C@@H]4C2)CCN1C | 4.51 |
| COc1cc2c3cc1Oc1c(OC)c(OC)cc4c1[C@H](Cc1ccc(cc1)Oc1cc(ccc1C1CC1)C[C@H]3N(C)CC2)N(C)CC4 | 4.96 |
| COc1cc2c3cc1Oc1c(OC)c(OC)cc4c1[C@H](Cc1ccc(cc1)Oc1cc(ccc1C(=O)NC15CC6CC(CC(C6)C1)C5)C[C@H]3N(C)CC2)N(C)CC4 | 5.31 |
| COc1cc2c3cc1Oc1c(OC)c(OC)cc4c1[C@H](Cc1ccc(cc1)Oc1cc(ccc1C)C[C@H]3N(C)CC2)N(C)CC4 | 4.99 |
| COc1cc2c3cc1Oc1c(OC)c(OC)cc4c1[C@H](Cc1ccc(cc1)Oc1cc(ccc1C(=O)NC1CC1)C[C@H]3N(C)CC2)N(C)CC4 | 4.21 |
| COc1cc2c3cc1Oc1c(OC)c(OC)cc4c1[C@H](Cc1ccc(cc1)Oc1cccc(c1)C[C@H]3N(C)CC2)N(C)CC4 | 4.77 |
| COC(=O)c1ccc2cc1Oc1ccc(cc1)C[C@H]1c3c(cc(OC)c(OC)c3Oc3cc4c(cc3OC)CCN(C)[C@@H]4C2)CCN1C | 4.53 |
| COc1cc2c3cc1Oc1c(OC)c(OC)cc4c1[C@H](Cc1ccc(cc1)Oc1cc(ccc1C(=O)N1CCCCC1)C[C@H]3N(C)CC2)N(C)CC4 | 4.61 |
| COc1cc2c3cc1Oc1c(OC)c(OC)cc4c1[C@H](Cc1ccc(cc1)Oc1cc(ccc1C(=O)NCCOCCO)C[C@H]3N(C)CC2)N(C)CC4 | 3.91 |
| COc1cc2c3cc1Oc1c(OC)c(OC)cc4c1[C@H](Cc1ccc(cc1)Oc1cc(cc([N+](=O)[O-])c1)C[C@H]3N(C)CC2)N(C)CC4 | 4.61 |
| COc1ccc(NC(=O)c2ccc3cc2Oc2ccc(cc2)C[C@H]2c4c(cc(OC)c(OC)c4Oc4cc5c(cc4OC)CCN(C)[C@@H]5C3)CCN2C)cc1 | 4.97 |
| COc1cc2c3cc1Oc1c(OC)c(OC)cc4c1[C@H](Cc1ccc(cc1)Oc1cc(ccc1C(C)=O)C[C@H]3N(C)CC2)N(C)CC4 | 4.53 |
| COc1cc2c3cc1Oc1c(OC)c(OC)cc4c1[C@H](Cc1ccc(cc1)Oc1cc(ccc1C(=O)Nc1ccc(C(F)(F)F)cc1)C[C@H]3N(C)CC2)N(C)CC4 | 4.98 |
| COc1cc2c3cc1Oc1c(OC)c(OC)cc4c1[C@H](Cc1ccc(cc1)Oc1cc(ccc1C(=O)NC1CCCC1)C[C@H]3N(C)CC2)N(C)CC4 | 4.65 |
| COc1cc2c3cc1Oc1c(OC)c(OC)cc4c1[C@H](Cc1ccc(cc1)Oc1cc(ccc1C(=O)Nc1ccccc1)C[C@H]3N(C)CC2)N(C)CC4 | 5.16 |
| C=C(C)c1ccc2cc1Oc1ccc(cc1)C[C@H]1c3c(cc(OC)c(OC)c3Oc3cc4c(cc3OC)CCN(C)[C@@H]4C2)CCN1C | 5.21 |

System: not listed separately
Test: Toxicity in mouse assessed as body weight loss at 10 to 200 mg/kg administered for 10 days
Assay type: organism-based
Settings: in vivo, 240 h, dose 10-200 mg/kg, time 10 day

| SMILES | Activity |
| --- | --- |
| COc1cc2c3cc1Oc1c(OC)c(OC)cc4c1[C@H](Cc1ccc(cc1)Oc1cc(ccc1C(N)=O)C[C@H]3N(C)CC2)N(C)CC4 | Non-toxic |

System: not listed separately
Test: Half life in male ICR mouse at 10 mg/kg, po measured upto 24 hrs by LC-MS/MS analysis
Assay type: ADME, organism-based
Settings: in vivo

| SMILES | half-life |
| --- | --- |
| COc1cc2c3cc1Oc1c(OC)c(OC)cc4c1[C@H](Cc1ccc(cc1)Oc1cc(ccc1C(N)=O)C[C@H]3N(C)CC2)N(C)CC4 | 12.5 h |
| COc1cc2c3cc1Oc1c(OC)c(OC)cc4c1[C@H](Cc1ccc(cc1)Oc1cc(ccc1O)C[C@H]3N(C)CC2)N(C)CC4 [AROMOLINE] | 6.39 h |
| COc1cc2c3cc1Oc1c(OC)c(OC)cc4c1[C@H](Cc1ccc(cc1)Oc1cc(ccc1C(=O)NC1CC1)C[C@H]3N(C)CC2)N(C)CC4 | 16 h |

System: not listed separately
Test: Cmax in male ICR mouse at 10 mg/kg, po measured upto 24 hrs by LC-MS/MS analysis
Assay type: ADME, organism-based
Settings: in vivo

| SMILES | Cmax |
| --- | --- |
| COc1cc2c3cc1Oc1c(OC)c(OC)cc4c1[C@H](Cc1ccc(cc1)Oc1cc(ccc1C(N)=O)C[C@H]3N(C)CC2)N(C)CC4 | 854 ng/mL |
| COc1cc2c3cc1Oc1c(OC)c(OC)cc4c1[C@H](Cc1ccc(cc1)Oc1cc(ccc1O)C[C@H]3N(C)CC2)N(C)CC4 [AROMOLINE] | 260 ng/mL |
| COc1cc2c3cc1Oc1c(OC)c(OC)cc4c1[C@H](Cc1ccc(cc1)Oc1cc(ccc1C(=O)NC1CC1)C[C@H]3N(C)CC2)N(C)CC4 | 313 ng/mL |

System: not listed separately
Test: Oral bioavailability in male ICR mouse at 10 mg/kg measured upto 24 hrs by LC-MS/MS analysis
Assay type: ADME, organism-based
Settings: in vivo

| SMILES | bioavailability |
| --- | --- |
| COc1cc2c3cc1Oc1c(OC)c(OC)cc4c1[C@H](Cc1ccc(cc1)Oc1cc(ccc1C(N)=O)C[C@H]3N(C)CC2)N(C)CC4 | 77.4% |
| COc1cc2c3cc1Oc1c(OC)c(OC)cc4c1[C@H](Cc1ccc(cc1)Oc1cc(ccc1O)C[C@H]3N(C)CC2)N(C)CC4 [AROMOLINE] | 34.5% |
| COc1cc2c3cc1Oc1c(OC)c(OC)cc4c1[C@H](Cc1ccc(cc1)Oc1cc(ccc1C(=O)NC1CC1)C[C@H]3N(C)CC2)N(C)CC4 | 68.1% |

System: not listed separately
Test: Half life in male ICR mouse at 2.5 mg/kg, iv measured upto 24 hrs by LC-MS/MS analysis
Assay type: ADME, organism-based
Settings: in vivo

| SMILES | half-life |
| --- | --- |
| COc1cc2c3cc1Oc1c(OC)c(OC)cc4c1[C@H](Cc1ccc(cc1)Oc1cc(ccc1C(N)=O)C[C@H]3N(C)CC2)N(C)CC4 | 17.1 h |
| COc1cc2c3cc1Oc1c(OC)c(OC)cc4c1[C@H](Cc1ccc(cc1)Oc1cc(ccc1O)C[C@H]3N(C)CC2)N(C)CC4 [AROMOLINE] | 13.2 h |
| COc1cc2c3cc1Oc1c(OC)c(OC)cc4c1[C@H](Cc1ccc(cc1)Oc1cc(ccc1C(=O)NC1CC1)C[C@H]3N(C)CC2)N(C)CC4 | 21.1 h |

System: Severe acute respiratory syndrome coronavirus 2
Test: Inhibition of SARS CoV-2 envelope (2-E) channel at 100 uM
Settings: not given

| SMILES | inhibition |
| --- | --- |
| COc1cc2c3cc1Oc1c(OC)c(OC)cc4c1[C@H](Cc1ccc(cc1)Oc1cc(ccc1C(=O)NC1CC1)C[C@H]3N(C)CC2)N(C)CC4 | inactive |
